Assays:
A431-fLuc = assay: Luciferase-based cytotoxicity assay, stably transduced CAR T cells against A431-fLuc, Example 4; type: cell-based, human; details: T cells without CAR expression; 10 nM
Experimental: Luciferase-expressing tumour cells were co-cultured with CAR T cells at an E:T cell ratio of 2:1 with 10,000 target cells/well in white round-bottom 96 well plates for 4 hours at 37° C. in cytotoxicity assay medium, consisting of phenol-free RPMI, 10% FCS, 1% L-Glutamine and 1% penicillin-streptomycin. Finally, remaining living cells were quantified by determination of the residual luciferase activity of the co-culture. After equilibration to room temperature for 10 minutes, luciferin was added to the cell suspension (150 μg/mL final concentration) and luciferase activity was measured 20 minutes later using the ENSPIRE Multimode plate reader. The percentage of specific lysis was determined with the following formula:
% specific lysis=100−((RLU from well with effector and target cell co-culture)/(RLU from well with target cells only)×100)).
Dimerization of transgenes was induced prior to co-cultivation experiments. Primary T cells were diluted to the final cell concentration in the respective cell culture medium. The homodimerization agent AP20187 was diluted in cell culture medium and was added at 10 nM final concentration. Addition of the respective vehicle control DMSO at the same concentration served as control. Cells were incubated at 37° C. for 30 minutes to ensure efficient dimerization of transgenes and subsequently used for in vitro experiments.

[1] = system: Jurkat T cells expressing tHER2; assay: Luciferase-based cytotoxicity assay, affibody-based CAR T cells against tHER2-expressing Jurkat T cells, Example 8; type: cell-based, human; details: binder fused to 8ser-BB-FKBP(36V)-3z; with or without 10 nM AP20187; E:T 2:1, 4 hours
Experimental: Luciferase-expressing tumour cells were co-cultured with CAR T cells at an E:T cell ratio of 2:1 with 10,000 target cells/well in white round-bottom 96 well plates for 4 hours at 37° C. in cytotoxicity assay medium, consisting of phenol-free RPMI, 10% FCS, 1% L-Glutamine and 1% penicillin-streptomycin. Finally, remaining living cells were quantified by determination of the residual luciferase activity of the co-culture. After equilibration to room temperature for 10 minutes, luciferin was added to the cell suspension (150 μg/mL final concentration) and luciferase activity was measured 20 minutes later using the ENSPIRE Multimode plate reader. The percentage of specific lysis was calculated with the following formula:
Dimerization of transgenes was induced prior to co-cultivation experiments. Primary T cells were diluted to the final cell concentration in the respective cell culture medium. The homodimerization agent AP20187 was diluted in cell culture medium and was added at 10 nM final concentration. Addition of the vehicle control DMSO at the same concentration served as control. Cells were incubated at 37° C. for 30 minutes to ensure efficient dimerization of transgenes and subsequently used for in vitro experiments.

CC[C@H](C(=O)N1CCCC[C@H]1C(=O)O[C@H](CCc1ccc(OC)c(OC)c1)c1cccc(OCC(=O)NCC(CNC(=O)COc2cccc([C@@H](CCc3ccc(OC)c(OC)c3)OC(=O)[C@@H]3CCCCN3C(=O)[C@@H](CC)c3cc(OC)c(OC)c(OC)c3)c2)CN(C)C)c1)c1cc(OC)c(OC)c(OC)c1 [AP20187, reference compound]
effect of the dimerization agent itself on lysis of target cells (A431-fLuc): no effects on the lysis of target cells

zHER2-WT: high-affinity anti-HER2 affibody with point mutations N23A and S33K
capacity to trigger cytotoxicity in presence or absence of AP20187 [1]: efficient target cell lysis independent of presence of AP20187

Reference: patent US20210386781A1, “A GROUP OF CHIMERIC ANTIGEN RECEPTORS (CARS)” (ST. ANNA KINDERKREBSFORSCHUNG, priority 2018, published 2021)
